Assay results published in paper PMC9858543, “Design, synthesis and evaluation of 2, 6, 8-substituted Imidazopyridine derivatives as potent PI3Kα inhibitors” (Journal of Enzyme Inhibition and Medicinal Chemistry, 2023).

Assays:
PI3Kα = target: T1, PI3Kα (Homo sapiens, UniProt P42336); assay: In vitro PI3Kα enzymatic assay (ADP-Glo / Kinase-Glo, ATP 25 μM); assay type: biochemical; conditions: ATP 25 μM
T1 construct: purchased Invitrogen
Method: To screen the inhibitory activity of the target compounds against PI3Kα, the Kinase-Glo™ assay with ATP at 25 μM was utilised with PIK-75 as positive control. We chose to explore the SARs at three positions on the Imidazo[1,2-a]pyridine core. To start with, a set of 8-position modifications were prepared while keeping the morpholinyl amide substituent on 2-position fixed, since it allowed quick structure − activity profiling via coupling reactions of bromide with aryl borates or boronic acids. […] We then turned our attention back to the phenyl substituents.
Briefly, the compound, PI3K enzyme (PI3Kα from Invitrogen), the PIP2 (Life Technologies) substrate, and ATP (25 μM, Sigma) were diluted in kinase buffer to the indicated concentrations. The assay plate was covered and incubated at room temperature for 1 h. Then, the Kinase-Glo reagent (Promega) was added to the PI3Kα plate to stop the reaction, mixed briefly with centrifuge, shaken slowly on the shaker and then equilibrate for 120 min. Finally, add Kinase detection reagent to each well, shake 1 min, equilibrate for 30 min before reading on a plate reader for luminescence. The data were collected on Envision and presented in Excel. IC50 values were calculated from the inhibition curves.

SKOV-3 = assay: Cell proliferation assay (CellTiter-Glo), SKOV-3; assay type: cell-based; conditions: Homo sapiens, SK-OV-3; 72 h exposure; mean ± SD of two experiments
Method: (§1) Given the desirable enzyme activity profile, these compounds were further assayed for their antiproliferative activities against five independent human tumour cell line collections harbouring PIK3CA mutation, including human ovarian cancer cell line SKOV-3, human breast cancer T47D and MCF-7, human lung cancer H1975 and H460. […] In general, the cellular activity of tested derivatives corrected with their effects on kinase activity.
(§2) All target compounds were evaluated for antiproliferative potency against SKOV-3, T47D,NCI-H1975, NCI-H460,and MCF-7 tumour cell lines using a CellTiter-Glo® Luminescent Cell Viability Assay. The human tumour cell lines used were obtained from the ATCC or Shanghai ZhongQiaoXinZhou Biotech. All the mediums and FBS were Gibco. T47D, H1975 and NCI-H460 tumour cells were cultured in RPMI1640 medium supplemented with 10% FBS. SKOV-3 was cultured in McCoy’s 5 A medium supplemented with 10%FBS. The day before treatment with compounds, cells were seeded at a density of 2000 or 5000 in each well of a 96-well plate. The tumour cells were then treated with 3-fold serial diluted compound or DMSO control in the incubator at 37 °C and 5% CO2 for 3 days, prior to the addition of CellTiter-Glo reagents (Promega) and reading of luminescence using a PerkinElmer Envision plate reader. Data were analysed using GraphPad Prism 7.0.

T47D = assay: Cell proliferation assay (CellTiter-Glo), T47D; assay type: cell-based; conditions: Homo sapiens, 72 h exposure, mean ± SD of two experiments
Method: as §1, §2

NCI-H1975 = assay: Cell proliferation assay (CellTiter-Glo), NCI-H1975; assay type: cell-based; conditions: Homo sapiens, 72 h exposure, mean ± SD of two experiments
Method: as §1, §2

NCI-H460 = assay: Cell proliferation assay (CellTiter-Glo), NCI-H460; assay type: cell-based; conditions: Homo sapiens, 72 h exposure, mean ± SD of two experiments
Method: as §1, §2

MCF-7 = assay: Cell proliferation assay (CellTiter-Glo), MCF-7; assay type: cell-based; conditions: Homo sapiens, MCF7; 72 h exposure; mean ± SD of two experiments
Method: as §1, §2

T47D cells = assay: Cell cycle analysis, PI flow cytometry; assay type: cell-based, human; conditions: 24 h
Method: Considering compound 35 was most sensitive in T47D cells, we decided to get some mechanistic insight into the mode of action in T47D cell line. As such, the annexin V/7-AAD staining and cell cycle phase distribution have been carried out. […] Furthermore, T47D cells were also treated with different concentrations of 35, and the percentage of apoptotic cells was measured.
For cell cycle analysis, T47D cell (1 × 10^6) were seeded in 6-well plates overnight and treated with different concentrations of compound 35 and DMSO control on the next day. After 24 h, the cells were collected by EDTA-free trypsinization, centrifuged at 1500 rpm for 5 min, and fixed in 75% ethanol at −20 °C for 1 h. The cells were then centrifuged at 2000 rpm for 5 min, resuspended in 500 µL PI/Rnase Staining Buffer, incubated for 30 min at room temperature, and analysed using flow cytometry. The data were analysed using Modfit software. For cell apoptosis analysis, T47D cell were seeded in 6 well-plates and treated with DMSO or compound 35 for 24 h. The treated cells were collected and washed with cold PBS for three times, resuspended in 185 µL binding buffer containing 5 μL Annexin V-FITC Apoptosis Detection Kit and 10 μL 7-AAD Viability Staining Solution for 15 min at room temperature in the dark. Apoptotic cells were analysed by flow cytometer.

[1] = Liver microsomal stability assay, HLM; assay type: in vitro ADME, human
Method: The metabolic stability of compound 35 was determined in human or SD rat liver microsomes, with and without the NADPH regenerating system. Briefly, compound 35 was incubated with microsomes (human microsome, CORNING, lot No. 38296; rat microsome, Xenotech, Lot No. 2110178) (0.5 mg protein/mL) at 1 μM at 37 °C in potassium phosphate buffer (100 mM at pH 7.4 with 10 mM MgCl2). The reactions were initiated by adding prewarmed cofactors (1 mmol NADPH). After incubation for different times (0, 5, 10, 20, 30, and 60 min) at 37 °C, cold acetonitrile containing 200 ng/mL tolbutamide and 200 ng/mL labetalol as internal standards was added to precipitate the protein. Then, the samples were centrifuged, and the supernatants were transferred into HPLC water, mixed by plate shaker for 10 min prior to LC − MS/MS analysis.

T1 sequence (P42336 whole entry): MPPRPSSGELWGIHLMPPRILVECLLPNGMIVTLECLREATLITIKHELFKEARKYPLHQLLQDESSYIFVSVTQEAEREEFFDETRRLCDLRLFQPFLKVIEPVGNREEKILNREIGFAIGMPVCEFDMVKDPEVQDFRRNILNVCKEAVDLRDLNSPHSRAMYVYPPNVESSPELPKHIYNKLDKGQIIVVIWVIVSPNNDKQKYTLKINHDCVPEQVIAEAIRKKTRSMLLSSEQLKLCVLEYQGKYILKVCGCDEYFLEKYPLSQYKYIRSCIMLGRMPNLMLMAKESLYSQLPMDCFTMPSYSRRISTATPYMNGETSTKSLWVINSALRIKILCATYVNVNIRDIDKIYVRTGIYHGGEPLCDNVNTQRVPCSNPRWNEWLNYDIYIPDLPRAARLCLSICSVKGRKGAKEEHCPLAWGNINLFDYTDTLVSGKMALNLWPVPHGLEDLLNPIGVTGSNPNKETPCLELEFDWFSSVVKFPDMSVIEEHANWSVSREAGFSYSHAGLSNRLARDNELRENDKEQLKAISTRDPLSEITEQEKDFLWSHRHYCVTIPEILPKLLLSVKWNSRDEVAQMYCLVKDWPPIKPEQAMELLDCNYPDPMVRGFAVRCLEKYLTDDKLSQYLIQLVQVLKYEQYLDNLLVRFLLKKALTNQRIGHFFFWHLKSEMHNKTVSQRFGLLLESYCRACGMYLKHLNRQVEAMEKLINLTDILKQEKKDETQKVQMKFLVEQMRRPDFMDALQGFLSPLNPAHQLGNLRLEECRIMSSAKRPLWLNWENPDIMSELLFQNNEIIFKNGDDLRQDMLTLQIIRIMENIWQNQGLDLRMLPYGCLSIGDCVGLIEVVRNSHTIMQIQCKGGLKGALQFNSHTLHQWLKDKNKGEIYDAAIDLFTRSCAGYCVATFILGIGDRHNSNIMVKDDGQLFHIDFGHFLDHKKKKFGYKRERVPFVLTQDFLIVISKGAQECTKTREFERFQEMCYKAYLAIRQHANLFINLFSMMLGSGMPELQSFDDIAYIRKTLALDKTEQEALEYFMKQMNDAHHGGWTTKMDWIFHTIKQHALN
T1 sequence (P27986 whole entry partner): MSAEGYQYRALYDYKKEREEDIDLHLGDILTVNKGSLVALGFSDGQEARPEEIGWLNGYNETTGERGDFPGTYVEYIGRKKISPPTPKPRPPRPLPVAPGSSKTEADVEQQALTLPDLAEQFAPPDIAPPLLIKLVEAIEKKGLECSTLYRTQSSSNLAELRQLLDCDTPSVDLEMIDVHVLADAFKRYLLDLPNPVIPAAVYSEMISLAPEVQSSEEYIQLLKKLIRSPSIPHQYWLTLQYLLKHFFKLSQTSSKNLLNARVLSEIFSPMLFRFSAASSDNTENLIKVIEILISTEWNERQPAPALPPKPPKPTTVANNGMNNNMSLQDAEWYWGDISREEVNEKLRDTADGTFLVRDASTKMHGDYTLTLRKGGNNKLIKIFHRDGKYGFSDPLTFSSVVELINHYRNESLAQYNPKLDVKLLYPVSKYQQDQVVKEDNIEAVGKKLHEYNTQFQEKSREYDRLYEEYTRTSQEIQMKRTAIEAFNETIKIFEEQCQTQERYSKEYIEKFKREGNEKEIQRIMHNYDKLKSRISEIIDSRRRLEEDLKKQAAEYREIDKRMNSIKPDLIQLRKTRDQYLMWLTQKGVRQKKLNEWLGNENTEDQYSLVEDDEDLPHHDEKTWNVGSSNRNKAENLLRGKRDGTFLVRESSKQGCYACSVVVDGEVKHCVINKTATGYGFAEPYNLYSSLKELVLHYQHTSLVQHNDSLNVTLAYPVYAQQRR

## COc1ncc(-c2cc(C)cn3cc(C(=O)N4CCCC4)nc23)cc1NS(=O)(=O)c1ccc(F)cc1 [Compound 35, 4-Fluoro-N-(2-methoxy-5–(6-methyl-2-(pyrrolidine-1-carbonyl)Imidazo[1,2-a]pyridin-8-yl)pyridin-3-yl)benzenesulfonamide]
PI3Kα; mean ± SD of two experiments
  IC50: 0.15 ± 0.02 µM
PI3Kα; PI3Kα, compound 10 μM, mean ± SD of three determinations, read-out: % Inhibition at 10 μM
  inhibition at 10 µM: > 85%
SKOV-3
  IC50: 26.6 ± 1.3 µM
T47D
  IC50: 7.9 ± 0.8 µM
NCI-H1975
  IC50: 32.1 ± 2.4 µM
NCI-H460
  IC50: 17.7 ± 2 µM
MCF-7
  IC50: 9.4 ± 0.6 µM
T47D cells
  cell cycle effect: S cell cycle arrest
[1]; 1 μM, 60 min
  Remaining (T = 60min): 42.7%
[1]; human, human liver microsomes, pH 7.4, 0.5 mg protein/mL, read-out: Metabolic stability CL int
  microsomal CLint at 1 μM: 30.7 µL/min/mg
[1]; human, human liver microsomes, pH 7.4, 0.5 mg protein/mL, read-out: Metabolic stability T1/2
  half-life at 1 μM: 45.1 min
